test system: Rattus norvegicus; test: Antiinflammatory activity in Wistar rat assessed as inhibition of carrageenan-induced paw edema at 10 mg/kg, po administered 1 hr before carrageenan challenge and measured 2 hrs post carrageenan challenge relative to untreated control; format: functional

Structure (SMILES) | inhibition in vivo at 10 mg/kg
NC(=O)c1c(-c2ccccc2)cc(C(F)(F)F)c2c1N=C(c1ccco1)N1CCN=C21 | 31%
NC(=O)c1c(C(F)(F)F)cc(-c2ccccc2)c2c1N=C(c1ccco1)N1CCN=C21 | 29%
NC(=O)c1c(-c2ccccc2)cc(C(F)(F)F)c2c1N=C(c1ccc(O)cc1)N1CCN=C21 | 61%
NC(=O)c1c(C(F)(F)F)cc(-c2ccccc2)c2c1N=C(c1ccc(O)cc1)N1CCN=C21 | 59%
NC(=O)c1c(-c2ccccc2)cc(C(F)(F)F)c2c1N=C(c1cccs1)N1CCN=C21 | 25%
NC(=O)c1c(C(F)(F)F)cc(-c2ccccc2)c2c1N=C(c1cccs1)N1CCN=C21 | 34%
COc1ccc2c(c1)c(CC(=O)O)c(C)n2C(=O)c1ccc(Cl)cc1 [INDOMETHACIN] | 79%

test system: Rattus norvegicus; test: Antiinflammatory activity in Wistar rat assessed as inhibition of carrageenan-induced paw edema at 10 mg/kg, po administered 1 hr before carrageenan challenge and measured 4 hrs post carrageenan challenge relative to untreated control; format: functional

Structure (SMILES) | inhibition in vivo at 10 mg/kg
NC(=O)c1c(-c2ccccc2)cc(C(F)(F)F)c2c1N=C(c1ccco1)N1CCN=C21 | 30%
NC(=O)c1c(C(F)(F)F)cc(-c2ccccc2)c2c1N=C(c1ccco1)N1CCN=C21 | 28%
NC(=O)c1c(-c2ccccc2)cc(C(F)(F)F)c2c1N=C(c1ccc(O)cc1)N1CCN=C21 | 60%
NC(=O)c1c(C(F)(F)F)cc(-c2ccccc2)c2c1N=C(c1ccc(O)cc1)N1CCN=C21 | 57%
NC(=O)c1c(-c2ccccc2)cc(C(F)(F)F)c2c1N=C(c1cccs1)N1CCN=C21 | 24%
NC(=O)c1c(C(F)(F)F)cc(-c2ccccc2)c2c1N=C(c1cccs1)N1CCN=C21 | 33%
COc1ccc2c(c1)c(CC(=O)O)c(C)n2C(=O)c1ccc(Cl)cc1 [INDOMETHACIN] | 75%

— ChEMBL document CHEMBL1275281, “Synthesis, anti-inflammatory evaluation and docking studies of some new fluorinated fused quinazolines” (2010)
